Measurements published in paper PMC7451656, “In vitro and in vivo growth inhibitory activities of cryptolepine hydrate against several Babesia species and Theileria equi” (PLoS Neglected Tropical Diseases, 2020).
Like-named read-outs stand apart in the source and are kept apart here.

Columns and labels:
B. bovis = assay: Growth inhibitory fluorescence assay in vitro, B. bovis; assay type: cell-based, Babesia bovis; settings: for IC50: Babesia bovis, in Bos taurus, B. bovis in vitro culture, fluorescence assay, 96 h; for Selective index HFF: EC50 HFF / IC50 B. bovis; for Selective index MDBK: EC50 MDBK / IC50 B. bovis
Description: (§1) Texas strain of B. bovis and Argentina strain of B. bigemina were grown using bovine red blood cells (RBCs, collected from cattle farm of Obihiro University of Agriculture and Veterinary Medicine and stored at 4°C) in medium 199 (M199; Sigma-Aldrich, Tokyo, Japan) supplemented with 40% bovine serum, while RPMI 1640 medium (Sigma-Aldrich, Tokyo, Japan) was used for B. divergens (German strain) cultivation. The United States Department of Agriculture (USDA) strain of T. equi was grown in equine RBCs (collected from horse farm of Obihiro University of Agriculture and Veterinary Medicine and stored at 4°C) in M199 supplemented with 40% equine serum, and hypoxanthine (MP Biomedicals, Santa Ana, CA, USA) at a final concentration of 13.6 μg/ml was used as a vital supplement, while GIT medium was used for B. caballi (USDA strain) cultivation. Sixty μg/ml of streptomycin, 0.15 μg/ml of amphotericin B, and 60 U/ml of penicillin G (Sigma-Aldrich, Tokyo, Japan) were added to all media to prevent fungal and bacterial contamination. All parasite cultures were maintained for a long time in a microaerophilic stationary-phase culture system.
(§2) The inhibition assay was conducted according to the previously described protocol. Briefly, different concentrations of CRY, DA, CF, and AQ were added in triplicate in 96-well plates with 1% parasitemia and 2.5% HCT for B. bovis and B. bigemina and 5% HCT for B. divergens, B. caballi, and T. equi. The plates were incubated in a humidified incubator with 5% CO2, 5% O2, and 90% N2 for 96 h without changing the media. After 96 h, 100 μl of lysis buffer containing 2 × SG1 was directly added to each well and the plates were then wrapped in aluminum foil for protection from direct light and incubated for 6 h at room temperature. Afterward, the fluorescence was measured using a fluorescence spectrophotometer (Fluoroskan Ascent, Thermo Fisher Scientific, USA) at 485 nm excitation and 518 nm emission wavelengths. The relative fluorescence value was set to percentages after subtracting the mean values of the negative control. The experiment was repeated thrice.
(§3) The IC50 values of CRY, DA, CF, and AQ were determined using the nonlinear regression curve fit in GraphPad Prism (GraphPad Software Inc., San Diego, CA, USA). Combination index (CI) values for the drug combination were calculated using CompuSyn software, and the degree of synergism was determined as the weighted average of CI values using a formula [(1 x IC50) + (2 x IC75) + (3 x IC90) + (4 x IC95)]/10 [30]. The differences in parasitemia and hematology profiles in the B. microti–infected mice were analyzed using an independent Student’s t-test and one-way ANOVA test using GraphPad Prism version 5.0 for Windows (GraphPad Software Inc., San Diego, CA, USA). A P-value < 0.05 was considered statistically significant.

B. bigemina = assay: Growth inhibitory fluorescence assay in vitro, B. bigemina; assay type: cell-based, Babesia bigemina; settings: for Selective index HFF: EC50 HFF / IC50 B. bigemina; for Selective index MDBK: EC50 MDBK / IC50 B. bigemina; for Selective index NIH/3T3: EC50 NIH/3T3 / IC50 B. bigemina
Description: as §1, §2, §3

B. divergens = assay: Growth inhibitory fluorescence assay in vitro, B. divergens; assay type: cell-based, Babesia divergens; settings: for IC50: Babesia divergens; for Selective index HFF: EC50 HFF / IC50 B. divergens; for Selective index MDBK: EC50 MDBK / IC50 B. divergens; for Selective index NIH/3T3: EC50 NIH/3T3 / IC50 B. divergens
Description: as §1, §2, §3

B. caballi = assay: Growth inhibitory fluorescence assay in vitro, B. caballi; assay type: cell-based, Babesia caballi; settings: for Selective index HFF: EC50 HFF / IC50 B. caballi; for Selective index MDBK: EC50 MDBK / IC50 B. caballi; for Selective index NIH/3T3: EC50 NIH/3T3 / IC50 B. caballi
Description: as §1, §2, §3

T. equi = assay: Growth inhibitory fluorescence assay in vitro, T. equi; assay type: cell-based, Theileria equi; settings: for Selective index HFF: EC50 HFF / IC50 T. equi; for Selective index MDBK: EC50 MDBK / IC50 T. equi; for Selective index NIH/3T3: EC50 NIH/3T3 / IC50 T. equi; for IC50: Theileria equi, T. equi in vitro culture, fluorescence assay, 96 h
Description: as §1, §2, §3

B. microti = assay: Chemotherapeutic effect against B. microti in mice (parasitemia); assay type: in vivo, Babesia microti; settings: for day p.i. on which parasitemia was undetectable by microscopy / peak parasitemia level: BALB/c mice; for peak parasitemia level: 5 days, day 10
Description: Rodent B. microti (Munich strain) was recovered from -80°C stock and injected intraperitoneally (i.p.) in two 8-week-old female BALB/c mice purchased from CLEA Japan (Clea Japan, Tokyo, Japan). The mice were euthanized using an anesthesia system containing isoflurane after parasitemia reached approximately 30% and the blood was collected by cardiac puncture to conduct the in vivo studies.
(§4) The promising effect of CRY in vitro encouraged us to evaluate its in vivo effects against B. microti in mice. The assay was conducted in accordance with the previously described protocol. In two separate trials, 35 female 8-week-old BALB/c mice, housed under a pathogen-free environment with controlled humidity, temperature (22°C) and a 12 h light/ dark cycle were caged in seven groups, each group consisting of five mice. Six groups were i.p. injected with 0.5 ml of inoculum (1×10^7 B. microti iRBCs), while the seventh group was left uninfected and untreated to act as a negative control. When the average parasitemia in all infected mice reached approximately 1%, the 5-day drug treatment was initiated. The first and second groups were i.p. injected with 25 mg/kg body weight (BW) of DA and 5 mg/kg BW of CRY, respectively. The third group received 20 mg/kg BW of AQ orally, while the fourth and fifth groups were administered a combination of 2.5 mg/kg BW CRY + 12.5 mg/kg BW DA and 2.5 mg/kg BW CRY + 10 mg/kg AQ via a route similar to that of the single-drug treatment, respectively. The sixth group received 5% DMSO in physiological saline i.p. as a positive control. Parasitemia and hematology profiles (RBCs, hemoglobin (HGB), and HCT) were monitored every 2 and 4 days by microscopic examination and hematology analyzer (Celltac α MEK-6450, Nihon Kohden Corporation, Tokyo, Japan), respectively. On day 49, all mice were euthanized using an anesthesia system containing isoflurane and the blood was collected by cardiac puncture for PCR detection of the parasites.

[1] = tested on: B. microti small-subunit rRNA (ss-rRNA) gene; assay: Nested PCR detection of B. microti DNA in blood of treated mice; assay type: in vivo, Babesia microti
Description: as §4
The nested PCR (nPCR) that targeted the B. microti small-subunit rRNA (ss-rRNA) gene was performed in accordance with the previously described protocol and the genomic DNA was extracted from blood samples collected from all mice groups on day 49 post-infection (p.i.) using a QIAamp DNA Blood Mini Kit (Qiagen, Tokyo, Japan). PCR cycling conditions were performed as previously described and the bands with an expected size of 154 bp were considered positive.

[2] = B. divergens in vitro culture, fluorescence assay, 96 h, read-out: IC50

Row | SMILES | IC50 (B. bovis) [nM] | Selective index HFF (B. bovis) | Selective index MDBK (B. bovis) | Selective index HFF (B. bigemina) | Selective index MDBK (B. bigemina) | Selective index NIH/3T3 (B. bigemina) | IC50 (B. divergens; [2]) [nM] | Selective index HFF (B. divergens) | Selective index MDBK (B. divergens) | Selective index NIH/3T3 (B. divergens) | Selective index HFF (B. caballi) | Selective index MDBK (B. caballi) | Selective index NIH/3T3 (B. caballi) | Selective index HFF (T. equi) | Selective index MDBK (T. equi) | Selective index NIH/3T3 (T. equi) | IC50 (T. equi) [nM] | also measured
1 | O=C1C(O)=C([C@H]2CC[C@H](c3ccc(Cl)cc3)CC2)C(=O)c2ccccc21 [AQ, atovaquone] | 39 ± 0.002 | ˃ 2564.1 | ˃ 2564.1 | ˃ 142.7 | ˃ 142.7 | ˃ 142.7 | 38 ± 0.002 | ˃ 2631.6 | ˃ 2631.6 | ˃ 2631.6 | ˃ 980.4 | ˃ 980.4 | ˃ 980.4 | ˃ 1052.6 | ˃ 1052.6 | ˃ 1052.6 | 95 ± 0.065 | Selective index NIH/3T3 (B. bovis; EC50 NIH/3T3 / IC50 B. bovis): ˃ 2564.1; day p.i. on which parasitemia was undetectable by microscopy (B. microti; 20 mg/kg AQ oral): 18 days; peak parasitemia level (B. microti; 20 mg/kg AQ oral): 9%; parasite DNA in blood (nPCR) ([1]; day 49, 20 mg/kg AQ): not detected
2 | Cn1c2c3ccccc3nc-2cc2ccccc21 [CRY, Cryptolepine hydrate] | 1740 ± 0.37 | ˃ 57.5 | 49.81 | ˃ 71.4 | 61.91 | 68.07 | 790 ± 0.32 | ˃ 126.9 | 109.71 | 120.62 | ˃ 166.7 | 144.45 | 158.82 | ˃ 136.9 | 118.73 | 130.54 | 730 ± 0.025 | concentration at which in vitro growth was significantly inhibited (B. bovis; B. bovis, t-test P = 0.005): 0.15 µM; concentration at which in vitro growth was significantly inhibited (B. bigemina; B. bigemina, t-test P = 0.005): 0.15 µM; IC50 (B. bigemina; Babesia bigemina, B. bigemina in vitro culture, fluorescence assay, 96 h): 1400 ± 0.6 nM; concentration at which in vitro growth was significantly inhibited (B. divergens; B. divergens, t-test P = 0.003): 0.078 µM; IC50 (B. divergens; B. divergens, fluorescence assay after 96 h, three trials, read-out: IC50 (Fig 1)): 788 ± 320 nM; concentration at which in vitro growth was significantly inhibited (B. caballi; B. caballi, t-test P = 0.001): 0.03 µM; IC50 (B. caballi; Babesia caballi, B. caballi in vitro culture, fluorescence assay, 96 h): 600 ± 0.53 nM; concentration at which in vitro growth was significantly inhibited (T. equi; T. equi, t-test P = 0.02): 0.078 µM; day p.i. on which parasitemia was undetectable by microscopy (B. microti; 5 mg/kg CRY i.p.): 28 days; peak parasitemia level (B. microti; 5 mg/kg CRY i.p., DMSO control 62.6% on day 8): 12.9%; growth of B. microti in mice (B. microti; CRY 5 mg/kg): effectively inhibited; parasite DNA in blood (nPCR) ([1]; day 49, 5 mg/kg CRY): still detected
